Several values for one entry are separate records, joined by “and”; a condition that tells them apart may be missing. Equal entries are not always repeated.

This assay deals with Erwinia amylovora 385. The experiment in a line: Reduction of the Erwinia amylovora population on apple blossom. It counts as in vivo. Conditions: 0.06% streptomycin; apple blossom cv. Gala; 10^6 bacteria/ml; sprayed one hour after inoculation; 6 days at 20 to 23° C.; tests 4 to 6. As for the experimental part:
2. Testing the Reduction of the Erwinia amylovora Population on Apple Blossom
Test plants: Apple blossom cv. Gala
Apple blossom cv. Gala were used in the following tests. The trees had not been treated with plant protection compositions. The flowers were placed by the petiole into a 10% strength sucrose solution and incubated in a humid chamber. 24 flowers were employed per treatment and repletition, and the test was repeated in each case three times.
Pathogen: Erwinia amylovora 385 was grown on agar plates. The apple blossom was inoculated with a suspension of 10^6 bacteria/ml.
Plant Treatment Composition:
1 part by weight of a solid formulation comprising
63.75% by weight of calcium formate
18.75% by weight of citric acid
16.73% by weight of calcium chloride
0.77% by weight of wetting agent and anti-dust agent were dissolved in 50 parts by weight (P 2%) of tap water and the solution was used for the following treatment. The pH was 4.1.
To carry out the treatments, the blossom was sprayed with the respective solution one hour after the inoculation, the chamber was sealed, and the contents were incubated for 6 days at 20 to 23° C.
(1-3) Water as the control
(4-6) 0.06% streptomycin (for comparison)

Consider `[H]/N=C(/N)N[C@H]1[C@H](O)[C@@H](O)[C@H](O[C@@H]2O[C@@H](C)[C@](O)(C=O)[C@H]2O[C@@H]2O[C@@H](CO)[C@H](O)[C@@H](O)[C@@H]2NC)[C@@H](N/C(N)=N\[H])[C@@H]1O` [streptomycin], for which the Efficacy was 84.6% and 89.5% and 95.5%.

The record behind these values is patent US20110165267A1, “AGENTS FOR TREATING AND/OR AVOIDING FIRE BLIGHT” (LANXESS DISTRIBUTION GMBH, priority 2008, published 2011).
